PMC10732151, “1,4,7-Triazacyclononane-Based Chelators for the Complexation of [^186Re]Re- and [^99mTc]Tc-Tricarbonyl Cores” (Inorganic Chemistry, 2023)
One block for each compound: values may come before it.

Columns and labels:
[1] = Radiocomplex stability in rat serum; assay type: in vitro ADME; conditions: 37 °C
Method: The radiocomplex stability was also tested in rat serum. HPLC-purified radiocomplexes ([^99mTc]Tc, 50 μL, 7.4–11.1 MBq, 200–300 μCi; [^186Re]Re, 50 μL, 3.0–3.7 MBq, 80–100 μCi) were added to solutions of rat serum (400 μL, Innovative-grade U.S. Origin Sprague–Dawley Rat Serum, Innovative Research, Novi, MI) and ascorbic acid (50 μL, 1 mg/mL in PBS, pH 7). The rat serum mixtures were incubated at 37 °C. Aliquots (100–300 μL) were taken at 1, 4, and 24 h for all radiocomplexes and also at 48 h for the [^186Re]Re complexes. The rat serum aliquots were added to a 4 times volume of acetonitrile to precipitate the rat serum proteins. The solutions were vortexed for 1 min and centrifuged for 10 min. The supernatant was carefully removed, and the pellet was washed with another portion of acetonitrile (100–500 μL). The solution was again vortexed and centrifuged, and the supernatant was removed. The activities in the combined supernatants (containing radiocomplex not bound to proteins) and the pellet (containing radiocomplex bound to proteins) were measured to determine the percentage of nonspecific protein binding for each radiocomplex. Finally, the solvent was removed from the supernatant under a stream of nitrogen, and the stability of the radiocomplexes was determined by radio-HPLC (Methods 1 and 3) after reconstitution in PBS (1 mM, pH 7.4). The formation of colloidal [^99mTc]TcO2 or [^186Re]ReO2 was also monitored at each time point by radio-TLC (Developers 1 and 2).

[2] = In vitro radiocomplex stability in PBS buffer with no challenger, L-cysteine or L-histidine; assay type: physicochemical; conditions: 37 °C
Method: Radiocomplex stability testing was carried out in PBS buffer (350–400 μL) with either no challenger or L-cysteine (50 μL, 10 mM) or L-histidine (50 μL, 10 mM) as the challenger. All stability tests also contained ascorbic acid (50 μL, 1 mg/mL in PBS, pH 7) as a radioprotectant. HPLC-purified radiocomplexes ([^99mTc]Tc, 50 μL, 3.7–5.6 MBq, 100–150 μCi; [^186Re]Re, 50 μL, 1.9–3.7 MBq, 50–100 μCi) were added to the stability testing solutions and incubated at 37 °C. Aliquots of each solution were taken at 1, 4, and 24 h, and the stability of the complex was determined by radio-HPLC (Methods 1 and 3) or radio-TLC (Developer 1). An additional stability time point of 48 h was taken for the [^186Re]Re complexes. The formation of colloidal [^99mTc]TcO2 or [^186Re]ReO2 was monitored at each time point by radio-TLC (Developers 1 and 2).

[3] = Storage stability of chelators and nonradioactive Re complexes; assay type: physicochemical; conditions: for hydrolysis observed on storage: under dry conditions at RT for 3 months
[4] = Solubility (qualitative); assay type: physicochemical

Compound: COC(=O)CN1CCN(CC(=O)O)CCN(CC(=O)NCc2ccccc2)CC1 [Chelator 7, TACN-benzylamide Acid Methyl Ester]
solubility (solvents in which soluble) [4]: soluble in methanol, ethanol, and water

Compound: O=C(O)CN1CCN(CC(=O)O)CCN(CC(=O)NCc2ccccc2)CC1 [Chelator 4, TACN-benzylamide Acid]
time stable on storage ([3]; at RT in an aqueous solution, in words): several months | solubility (solvents in which soluble) [4]: soluble in water, methanol, and acetonitrile

Compound: O=C(CN1CCNCCNCC1)NCc1ccccc1 [Chelator 3, N-Benzyl-2-(1,4,7-triazonan-1-yl)acetamide]
solubility (solvents in which soluble) [4]: soluble in water, methanol, and acetonitrile

Compound: CCOC(=O)CN1CCN(CC(=O)NCc2ccccc2)CCN(CC(=O)OCC)CC1 [Chelator 6, TACN-benzylamide Ethyl Ester]
time stable on storage ([3]; stored in an ethanol solution): up to 1 week | solubility (solvents in which soluble) [4]: soluble in ethanol and acetonitrile

Compound: fac-[Re(CO)3(TACN-benzylamide methyl ester)]^+ [Re-5]
hydrolysis observed on storage [3]: < 5%

Compound: fac-[Re(CO)3(TACN-benzylamide acid)]^+ [Re-4]
time stable on storage ([3]; stored under dry conditions, in words): several months | solubility (solvents in which soluble) [4]: soluble in water and methanol

Compound: CCOC(=O)CN1CCN(CC(=O)O)CCN(CC(=O)NCc2ccccc2)CC1 [Chelator 8, TACN-benzylamide Acid Ethyl Ester]
solubility (solvents in which soluble) [4]: soluble in ethanol and acetonitrile

Compound: COC(=O)CN1CCN(CC(=O)NCc2ccccc2)CCN(CC(=O)OC)CC1 [Chelator 5, TACN-benzylamide Methyl Ester]
time stable on storage ([3]; stored in a methanol solution, afterwards ester hydrolysis observed): up to 1 week | solubility (solvents in which soluble) [4]: soluble in methanol and acetonitrile

More lines, now with the values ahead:

stability in rat serum ([1]; 48 h): ≤ 2% | stability in PBS, L-cysteine, and L-histidine ([2]; through 4 h): > 95% | stability in PBS, L-cysteine, and L-histidine ([2]; through/after 48 h): > 76%
Compound: CCOC(=O)CN1CCN(CC(=O)NCc2ccccc2)CCN(CC(=O)OCC)CC1.O=[C]=[186Re+](=[C]=O)=[C]=O [[^186Re]Re-6]

stability in rat serum ([1]; 24 h): > 60% | stability in PBS, L-cysteine, and L-histidine ([2]; through 24 h): 100%
Compound: CCOC(=O)CN1CCN(CC(=O)O)CCN(CC(=O)NCc2ccccc2)CC1.O=[C]=[99Tc+](=[C]=O)=[C]=O [[^99mTc]Tc-8]

stability in rat serum ([1]; 48 h): 38% | stability in PBS, L-cysteine, and L-histidine ([2]; through/after 48 h): > 94%
Compound: COC(=O)CN1CCN(CC(=O)O)CCN(CC(=O)NCc2ccccc2)CC1.O=[C]=[186Re+](=[C]=O)=[C]=O [[^186Re]Re-7]

time stable on storage ([3]; stored under dry, dark conditions at RT): 1 month | solubility (solvents in which soluble) [4]: soluble in water
Compound: fac-[Re(CO)3(TACN-benzylamide)]^+ [Re-3]

stability in rat serum ([1]; 24 h): ≤ 2% | stability in PBS, L-cysteine, and L-histidine ([2]; through 4 h): > 90% | stability in PBS, L-cysteine, and L-histidine ([2]; through 24 h): > 79%
Compound: CCOC(=O)CN1CCN(CC(=O)NCc2ccccc2)CCN(CC(=O)OCC)CC1.O=[C]=[99Tc+](=[C]=O)=[C]=O [[^99mTc]Tc-6]

hydrolysis observed on storage [3]: no hydrolysis observed
Compound: CCOC(=O)C[N+]12CC[N+]3(CC(=O)NCc4ccccc4)CC[N+](CC(=O)OCC)(CC1)[Re-2]32.[C-]#[O+].[C-]#[O+].[C-]#[O+] (stereo not shown) [Re-6, fac-[Re(CO)3(TACN-benzylamideethyl ester)]^+]

stability in rat serum ([1]; 24 h): 32 ± 10% | stability in rat serum ([1]; at 1 h): 94 ± 1% | stability in PBS, L-cysteine, and L-histidine ([2]; through 4 h): > 90% | stability in PBS, L-cysteine, and L-histidine ([2]; through 24 h): > 79%
Compound: COC(=O)CN1CCN(CC(=O)NCc2ccccc2)CCN(CC(=O)OC)CC1.O=[C]=[99Tc+](=[C]=O)=[C]=O [[^99mTc]Tc-5]

stability in rat serum ([1]; 48 h): 4 ± 1% | stability in rat serum ([1]; at 1 h): 88 ± 1% | stability in PBS, L-cysteine, and L-histidine ([2]; through 4 h): > 95% | stability in PBS, L-cysteine, and L-histidine ([2]; through/after 48 h): > 76%
Compound: COC(=O)CN1CCN(CC(=O)NCc2ccccc2)CCN(CC(=O)OC)CC1.O=[C]=[186Re+](=[C]=O)=[C]=O [[^186Re]Re-5]

stability in rat serum ([1]; 24 h): > 60% | stability in PBS, L-cysteine, and L-histidine ([2]; through 24 h): 100%
Compound: COC(=O)CN1CCN(CC(=O)O)CCN(CC(=O)NCc2ccccc2)CC1.O=[C]=[99Tc+](=[C]=O)=[C]=O [[^99mTc]Tc-7]

stability in rat serum ([1]; 48 h): 42% | stability in PBS, L-cysteine, and L-histidine ([2]; through/after 48 h): > 94%
Compound: CCOC(=O)CN1CCN(CC(=O)O)CCN(CC(=O)NCc2ccccc2)CC1.O=[C]=[186Re+](=[C]=O)=[C]=O [[^186Re]Re-8]
